Source: US20250017907A1, “METHOD FOR PREVENTING AND/OR TREATING LIVER FIBROSIS BY USING 6-METHOXYBENZOXAZOLINONE AND COIX LACHRYMA-JOBI L. EXTRACT COMPRISING 6-METHOXYBENZOXAZOLINONE” (Taichung District Agricultural Research and Extension …, priority 2023, published 2025)

Tests used:
[1] = system: TAA-induced liver fibrotic C57BL/6J mice; test: Liver weight, body weight and liver index; format: in vivo; settings: CX groups (20 and 50 mg/kg oral, 6 weeks); vs TAA group
Procedure: For tests of adlay extracts, mice were randomly divided into the following seven groups (n=6, per group): (1) No treatment group (NT, normal diet), (2) Thioacetamide group (TAA, 200 mg/kg, normal diet), (3) 10% adlay seed powder (ASP) group, (4) 1% adlay leaf powder (ALP) group, (5) 1% adlay seed polysaccharide (ASPS) group, (6) 0.025% adlay seed ethanolic extract (ASE) group and (7) 0.1% ASE group. NT group received pure saline, and other groups intraperitoneally injected with TAA dissolved into saline thrice a week.
(§1) For tests of CX, mice were randomly divided into the following four groups (n=8, per group): (1) NT group, (2) TAA group (200 mg/kg), (3) CX group (CX20, 20 mg/kg), and (4) CX group (CX50, 50 mg/kg). NT group received pure saline, and other groups intraperitoneally injected with TAA dissolved into saline thrice a week. Moreover, NT group and TAA group also received 5% propylene glycol, while CX groups received CX dissolved into 5% propylene glycol (prepared in 0.9% saline) by oral gavage once per day.
The procedure of the schematic diagram of animal experiment design in adlay groups is described as follows. To examine the effects of adlay on liver fibrosis, this example established a TAA-induced liver fibrotic C57BL/6J mouse model. FIG. 1 is a schematic diagram of animal experiment design in adlay groups. In this experiment, C57BL/6J mice were intraperitoneally injected with thioacetamide (TAA) to induce liver fibrosis. At six weeks of age, the mice were randomly divided into seven groups fed with different diets (NT, TAA, 10% ASP, 1% ALP, 1% ASPS, 0.025% ASE and 0.1% ASE, n=6). After co-feeding for 6 weeks during which intraperitoneal injection of TAA was administered thrice a week, the mice were finally sacrificed at 12 weeks of age. NT represents no treatment, ASP represents adlay seed powder, ALP represents adlay leaf powder, ASPS represents adlay seed polysaccharide, and ASE represents adlay seed ethanolic extract. […]

[2] = system: TAA-induced liver fibrotic C57BL/6J mice; test: Serum TGF-β1 ELISA; format: in vivo; settings: CX groups (20 and 50 mg/kg oral, 6 weeks); vs TAA group
Procedure: as §1
To examine the effects of CX on liver fibrosis, this example established a TAA-induced liver fibrotic C57BL/6J mouse model. FIG. 6 is a schematic diagram of animal experiment design in 6-methoxybenzoxazolinone (6-MBOA) (CX) groups. For animal experiments, 6-week-old C57BL/6J mice were randomly divided into four groups including NT, TAA, CX20 (TAA+20 mg/kg CX), CX50 (TAA+50 mg/kg CX). (n=8 per group). […]
The procedure of TGF-β1 enzyme-linked immunosorbent assay (ELISA) is as follows. The level of TGF-β1 was detected in serum by using commercial mouse ELISA kits (Invitrogen, USA) and the working procedure was followed a standard sandwich ELISA protocol. […] After reacted with stop solution, immediately measured the color intensity at 450 nm by ELISA reader (TECAN, Switzerland).

[3] = system: TGF-β1-activated HSC-T6 cells; test: Real-time PCR of inflammatory factors; format: cell-based, rat; settings: HSC-T6, TGF-β1 10 ng/mL, 24 h
From the text: The procedure of real-time PCR analysis is as follows. Total RNA was extracted with the Trizol reagent (Ambion, USA) and then reverse-transcribed into cDNA with RevertAid First Strand cDNA Synthesis kit (Thermo Scientific, USA). The PCR amplification was accomplished with SYBR Green PCR Master Mix (Applied Biosystems, USA), and the mRNA expression of the gene was normalized to GAPDH. All primers were obtained from Genomics (Genomics, Taiwan). Rat primer sequences are used for real-time PCR of HSC-T6 cells, and mouse primer sequences are used for real-time PCR of C57BL/6J mice.
(§2) The procedure of cell cultures is as follows. HSC-T6 cell is an immortalized cell line isolated from transformed SV40 large T-antigen transformed primary stellate cells of male Sprague-Dawley rats. HSC-T6 cells were maintained in Dulbecco's Modified Eagle Medium (DMEM, Sigma-Aldrich, USA) containing 8% fetal bovine serum (FBS, HyClone, USA), 100 U/mL of penicillin, and 100 μg/mL of streptomycin (Gibco, USA).
(§3) For hepatic stellate cell (HSC) activation, cells were cultured for 24 h and then replaced with serum-free medium for 24 h, after that, treated with transforming growth factor beta 1 (TGF-β1) (10 ng/mL) in the presence or absence of CX (10-100 μM) or adlay leaf, root, and seed extracts (25 and 50 μg/mL) for 24 h, or 30 min for intracellular signal pathways.

[4] = system: TGF-β1-activated HSC-T6 cells; test: ROS detection assay (DCFDA); format: cell-based, rat; settings: HSC-T6, TGF-β1, CX 10-100 μM, with increasing doses
Procedure: as §2, §3
The procedure of ROS detection assay is as follows. 2′,7′-Dichlorofluorescein diacetate (DCFDA), a cell-permeable fluorogenic probe, is usually used to detect ROS and nitric oxide in live cells. DCFDA rapidly de-esterifies to form fluorescent 2′,7′-dichlorofluorescein (DCF) when it is oxidized by ROS in cells. For ROS detection, cells were seeded in the 96-well plate for 24 h, then starvation (culture in serum-free medium) and drug treatment, followed by changing the medium with DCFDA solution for 30 min, and detecting the excitation/emission spectra of 485/525 nm by multimode microplate readers (TECAN, Switzerland).

COc1ccc2[nH]c(=O)oc2c1 [CX, 6-methoxybenzoxazolinone]
change in body weight caused by TAA [1]: did not significantly improve
liver index (ratio of liver weight to body weight) [1]: decreased significantly
liver weight [1]: reduced
upregulation of TGF-β1 in serum caused by TAA (ELISA) [2]: significantly reduced
TGF-β1-induced IL-6 mRNA level ([3]; CX 10, 20, 50, 100 μM): dose-dependently decreased
TGF-β1-induced TNF-α mRNA level ([3]; CX 10, 20, 50, 100 μM): dose-dependently decreased
IL-10 mRNA level ([3]; CX at the highest dose (100 μM)): significantly increased
TGF-β1-induced ROS levels (DCFDA) [4]: reduced
